Assay results as given in patent US11351173B2, “Substituted pyrrolo[1,2-a]pyrimidines and their use in the treatment of medical disorders” (Bial—R&D Investments, S.A., priority 2014, dated 2022).
In brackets after ≈: the same amount, converted by molar mass.

Key:
[1] = target: T1, glucocerebrosidase (Gcase) (Homo sapiens, UniProt P04062); assay: Glucocerebrosidase (Gcase) activation assay, 4-methylumbelliferyl-beta-D-glucopyranoside substrate, fluorescence readout; assay type: biochemical; settings: for activation at 0.1 µM / Percent Gcase Activation, 0.1 μM Test Compound: test compound at 0.1 μM; for activation at 0.1 µM: read-out: Percent Gcase Activation, 0.1 μM Test Compound; for activation at 1 µM / Percent Gcase Activation, 1 μM Test Compound: test compound at 1.0 μM; for activation at 1 µM: read-out: Percent Gcase Activation, 1 μM Test Compound
T1 construct: micellar solution containing 10 nM GCase and 100 nM saposin C
T1 sequence (P04062 40-536): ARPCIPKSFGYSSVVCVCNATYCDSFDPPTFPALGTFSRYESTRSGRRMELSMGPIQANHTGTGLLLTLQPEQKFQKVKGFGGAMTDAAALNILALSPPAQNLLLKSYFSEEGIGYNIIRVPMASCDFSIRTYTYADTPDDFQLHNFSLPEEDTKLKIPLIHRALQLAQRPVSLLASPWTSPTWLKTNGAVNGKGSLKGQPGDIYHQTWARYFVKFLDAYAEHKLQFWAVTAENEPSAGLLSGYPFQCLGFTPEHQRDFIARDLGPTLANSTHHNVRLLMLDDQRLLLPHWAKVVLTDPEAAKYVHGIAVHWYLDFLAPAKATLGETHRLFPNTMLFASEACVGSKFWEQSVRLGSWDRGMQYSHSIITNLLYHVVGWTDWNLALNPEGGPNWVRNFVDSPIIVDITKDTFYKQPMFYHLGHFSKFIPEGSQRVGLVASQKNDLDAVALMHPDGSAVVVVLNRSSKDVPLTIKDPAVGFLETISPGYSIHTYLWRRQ
In short: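 Fluorescence (ex 365 nm, em 440 nm) read after glycine pH 12.5 stop of a 15 min room-temperature reaction. GCase 10 nM plus saposin C 100 nM in PS/triton micelles, pH 4.7, preincubated 30 min with compound; substrate solution held 2 mM 4-MU-beta-glucoside. Screened at 1.0 and 0.1 μM; 8-point, 3-fold curves from 5 μM top.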

[2] = Compound solubility in water; settings: water; for solubility: Compound Solubility in Water

SMILES: C#Cc1ccc(NC(=O)c2ccn3c(C)cc(C)nc23)c(CO)c1 [III-213]
- activation at 0.1 µM [1]: < 10%
- activation at 1 µM [1]: < 30%
- solubility ([2]; in water): 0.7 µg/mL (≈ 2.19 µM)

SMILES: Cc1cc(C(F)F)nc2c(C(=O)Nc3ccc(-c4cocn4)cc3)ccn12 [III-30]
- activation at 0.1 µM [1]: > 20%
- activation at 1 µM [1]: 30 to 60%
- solubility [2]: 0.06 µg/mL (≈ 0.163 µM)

SMILES: Cc1cc(C)n2ccc(C(=O)Nc3cccc4c3CCC4)c2n1 [III-220]
- activation at 0.1 µM [1]: > 20%
- activation at 1 µM [1]: > 60%
- solubility ([2]; in water): 0.2 µg/mL (≈ 0.655 µM)

SMILES: Cc1cc(C)n2ccc(C(=O)Nc3ccc(Cl)c(COc4cccnc4)c3)c2n1 [III-279]
- Percent Gcase Activation, 0.1 μM Test Compound [1]: *** (greater than 20% Gcase activation)
- Percent Gcase Activation, 1 μM Test Compound [1]: +++ (Gcase activation greater than 60%)
- solubility ([2]; in water): < 0.1 µg/mL

SMILES: Cc1ccnc2c(C(=O)N[C@H]3CCCc4ccccc43)ccn12 [III-255]
- activation at 0.1 µM [1]: > 20%
- activation at 1 µM [1]: > 60%
- solubility ([2]; in water): 3.5 µg/mL (≈ 11.5 µM)

SMILES: Cc1cc(C)n2ccc(C(=O)NC3(C)CCOc4ccc(F)c(F)c43)c2n1 (stereo not drawn) [III-173]
- activation at 0.1 µM [1]: 10 to 20%
- activation at 1 µM [1]: > 60%
- solubility [2]: 0.06 µg/mL (≈ 0.162 µM)

SMILES: Cc1cc(C)n2ccc(C(=O)NC3CC=C(c4ncco4)CC3)c2n1 (stereo not drawn) [III-247]
- activation at 0.1 µM [1]: < 10%
- activation at 1 µM [1]: 30 to 60%
- solubility ([2]; in water): 27.1 µg/mL (≈ 80.6 µM)

SMILES: Cc1cc(C)n2ccc(C(=O)Nc3ccc4c(c3)CCC4)c2n1 [III-148]
- activation at 0.1 µM [1]: > 20%
- activation at 1 µM [1]: > 60%
- solubility [2]: 0.06 µg/mL (≈ 0.196 µM)

SMILES: Cc1cc(C)n2ccc(C(=O)N[C@H]3CC[C@H](OC(C)(C)C)CC3)c2n1 [III-289]
- activation at 0.1 µM [1]: 10 to 20%
- activation at 1 µM [1]: > 60%
- solubility ([2]; in water): 17.1 µg/mL (≈ 49.8 µM)

SMILES: Cc1cc(C)n2ccc(C(=O)NC3CCOc4c(F)ccc(F)c43)c2n1 (stereo not drawn) [III-171]
- activation at 0.1 µM [1]: > 20%
- activation at 1 µM [1]: > 60%
- solubility [2]: 1.7 µg/mL (≈ 4.76 µM)

SMILES: CCCCO[C@H]1C2CCC1C[C@@H](NC(=O)c1ccn3c(C)cc(C)nc13)C2 [III-185]
- activation at 0.1 µM [1]: > 20%
- activation at 1 µM [1]: > 60%
- solubility [2]: 3.1 µg/mL (≈ 8.39 µM)

SMILES: Cc1cc(C)n2ccc(C(=O)Nc3ccc(-c4cnn(C)c4)nc3)c2n1 [III-283]
- Percent Gcase Activation, 0.1 μM Test Compound [1]: * (less than 10% Gcase activation)
- Percent Gcase Activation, 1 μM Test Compound [1]: + (less than 30% Gcase activation)
- solubility ([2]; in water): 0.2 µg/mL (≈ 0.577 µM)

SMILES: C#CCCCOC1CCC(NC(=O)c2ccn3c(C)cc(C)nc23)C1 (stereo not drawn) [III-272]
- activation at 0.1 µM [1]: < 10%
- activation at 1 µM [1]: > 60%
- solubility ([2]; in water): 15.8 µg/mL (≈ 46.5 µM)

SMILES: Cc1cc(C)n2ccc(C(=O)Nc3ccc(-c4cnn(C)c4)nc3)c2n1 [III-21]
- activation at 0.1 µM [1]: < 10%
- activation at 1 µM [1]: < 30%
- solubility [2]: 0.2 µg/mL (≈ 0.577 µM)

SMILES: Cc1cc(C)n2ccc(C(=O)NC3CCc4ccccc43)c2n1 (stereo not drawn) [III-216]
- activation at 0.1 µM [1]: > 20%
- activation at 1 µM [1]: > 60%
- solubility ([2]; in water): 1.8 µg/mL (≈ 5.89 µM)

SMILES: Cc1cc(C)n2ccc(C(=O)NC3CCCc4cnccc43)c2n1 (stereo not drawn) [III-151]
- activation at 0.1 µM [1]: < 10%
- activation at 1 µM [1]: < 30%
- solubility [2]: 16.2 µg/mL (≈ 50.6 µM)

SMILES: CCCCCOC1CCC(NC(=O)c2ccn3c(C)cc(C)nc23)CC1 (stereo not drawn) [III-22]
- activation at 0.1 µM [1]: > 20%
- activation at 1 µM [1]: > 60%
- solubility [2]: 0.5 µg/mL (≈ 1.4 µM)

SMILES: CCCCCO[C@@H]1CC[C@H](NC(=O)c2ccn3c(C)cc(C)nc23)C1 [III-145]
- activation at 0.1 µM [1]: 10 to 20%
- activation at 1 µM [1]: > 60%
- Compound Solubility in Water [2]: 2.3 µg/mL

SMILES: Cc1cc(C)n2ccc(C(=O)NC3CCOc4cc(F)ccc43)c2n1 (stereo not drawn) [III-196]
- activation at 0.1 µM [1]: 10 to 20%
- activation at 1 µM [1]: > 60%
- solubility [2]: 4.2 µg/mL (≈ 12.4 µM)

SMILES: COC1CCc2ccc(NC(=O)c3ccn4c(C)cc(C)nc34)cc21 (stereo not drawn) [III-119]
- activation at 0.1 µM [1]: > 20%
- activation at 1 µM [1]: > 60%
- solubility [2]: 2.6 µg/mL (≈ 7.75 µM)

SMILES: CCCOCCO[C@H]1CC[C@H](NC(=O)c2ccn3c(C)cc(C)nc23)CC1 [III-197]
- activation at 0.1 µM [1]: < 10%
- activation at 1 µM [1]: 30 to 60%
- solubility [2]: 16.9 µg/mL (≈ 45.2 µM)

SMILES: C#Cc1ccc(C(C)(C)NC(=O)c2ccn3c(C)cc(COC)nc23)cc1 [III-61]
- activation at 0.1 µM [1]: > 20%
- activation at 1 µM [1]: > 60%
- solubility [2]: 2.5 µg/mL (≈ 6.92 µM)

SMILES: Cc1cc(Cl)n2ccc(C(=O)Nc3ccc(-c4cocn4)cc3)c2n1 [III-39]
- activation at 0.1 µM [1]: 10 to 20%
- activation at 1 µM [1]: 30 to 60%
- solubility [2]: 0.7 µg/mL (≈ 1.98 µM)

SMILES: Cc1ccn2ccc(C(=O)Nc3ccc(-c4ncco4)cc3)c2n1 [III-265]
- activation at 0.1 µM [1]: < 10%
- activation at 1 µM [1]: < 30%
- solubility ([2]; in water): 2 µg/mL (≈ 6.28 µM)

SMILES: Cc1cc(C)n2ccc(C(=O)N[C@H]3CC[C@H](OCC4CC(F)(F)C4)CC3)c2n1 [III-95]
- activation at 0.1 µM [1]: 10 to 20%
- activation at 1 µM [1]: > 60%
- solubility [2]: 3.1 µg/mL (≈ 7.92 µM)
